Data as given in PMC2810561 (Journal of the American Chemical Society, 2009).

Test system: T84 human intestinal cells
Format: cell-based

cholera toxin
secretory response (short-circuit current) to cholera toxin: a pronounced secretory response was observed
